The text below walks through data of patent US11708318B2, “Polymorphic forms of RAD1901-2HCL” (Radius Pharmaceuticals, Inc., priority 2017, dated 2023).

Entries after “also recorded” stand apart in the source; their conditions may differ.

Series [1] in a line: Storage at elevated temperature/humidity, analysed by XRPD. In kind it is physicochemical.
Series [2] concerns the target T1, estrogen receptor (ER) (Homo sapiens, UniProt P03372).
T1 sequence (P03372 1-595): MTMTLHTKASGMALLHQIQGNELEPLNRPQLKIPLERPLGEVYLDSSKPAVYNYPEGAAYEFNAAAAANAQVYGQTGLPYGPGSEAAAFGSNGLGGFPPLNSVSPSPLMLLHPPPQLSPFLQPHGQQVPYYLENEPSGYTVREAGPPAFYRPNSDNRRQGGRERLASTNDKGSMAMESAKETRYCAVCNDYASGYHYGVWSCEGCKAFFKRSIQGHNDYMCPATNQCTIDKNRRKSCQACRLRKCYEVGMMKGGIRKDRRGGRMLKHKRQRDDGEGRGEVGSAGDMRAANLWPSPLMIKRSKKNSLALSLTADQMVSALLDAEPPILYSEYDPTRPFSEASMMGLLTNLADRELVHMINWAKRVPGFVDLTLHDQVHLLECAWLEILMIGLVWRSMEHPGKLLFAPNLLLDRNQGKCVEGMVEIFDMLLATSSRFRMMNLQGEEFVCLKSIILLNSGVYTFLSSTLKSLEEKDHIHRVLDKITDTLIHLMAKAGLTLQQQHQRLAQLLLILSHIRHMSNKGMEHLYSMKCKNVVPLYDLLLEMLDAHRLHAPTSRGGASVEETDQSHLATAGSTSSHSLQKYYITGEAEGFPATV
Particulars: cited from earlier work.

The nature of series [3]: Gravimetric Vapour Sorption (GVS), with XRPD of the recovered sample. In kind it is physicochemical. As to the method: Sorption isotherms were obtained using a SMS DVS Intrinsic moisture sorption analyzer, controlled by DVS Intrinsic Control software v1.0.1.2 (or v 1.0.1.3). The sample temperature was maintained at 25° C. by the instrument controls. The humidity was controlled by mixing streams of dry and wet nitrogen, with a total flow rate of 200 ml/min. The relative humidity was measured by a calibrated Rotronic probe (dynamic range of 1.0-100% RH), located near the sample. The weight change, (mass relaxation) of the sample as a function of % RH was constantly monitored by the microbalance (accuracy ±0.005 mg).
A sample (e.g., 20 mg) was placed in a tared mesh stainless steel basket under ambient conditions. The sample was loaded and unloaded at 40% RH and 25° C. (typical room conditions). A moisture sorption isotherm was performed as outlined below (2 scans giving 1 complete cycle). Standard isotherms were performed at 25° C. at 10% RH intervals over a 0-90% RH range. Data analysis was carried out using Microsoft Excel using DVS Analysis Suite v6.2 (or 6.1 or 6.0).
In a cycle of 2 scans, the first scan was performed with adsorption of 40-90% RH, followed by a second scan with desorption of 90-0% RH and adsorption of 0-40% RH, with intervals of 10% RH, at 25° C. with stability dm/dt of 0.002% ° C./min. The sorption time was 6 hr time out.
The sample was recovered after completion of the isotherm and re-analyzed by XRPD. Custom moisture sorption methods were also performed at 25° C. at fixed % RH intervals over a 0-95% RH range, with the purpose to fully understand the sorption/desorption behavior of the compound under elevated conditions.
To further explore the humidity behavior of Sample 1 (Form 1) upon exposure to high RH (>90%), custom GVS experiments were designed and carried out. Initially, the sample was treated by holding at 90 and then 95% RH for ˜12 hours to see if hydrate formation could be observed (HighRH method of Steps 1 and 2 of Table 2, FIGS. 6C-6D).
To test the stability of the hydrated state, GVS method HighRH_Desorp_3 was designed with a desorption step and subsequent adsorption (see Table 2 with steps 1-4, FIGS. 6E-6F).
Finally, to ensure complete conversion to the anhydrous and hydrated forms, a GVS experiment was designed to increase both the length of the desorption step at 0% RH, and the adsorption step at 95% RH, respectively (Table 3). Based on the weight stabilization observed in the kinetic plots for Sample 1 in HighRH and HighRH_Desorp_3 methods discussed above (FIGS. 6D and 6F), a holding time of 800 mins at 0% RH and 1600 mins at 95% RH were chosen. A double cycle was also recorded for this experiment to observe whether the sample would return to Form 1 or form a mixed anhydrous/hydrated species (see Table 3, FIGS. 6G-6H).

Series [4] in a line: Storage at elevated temperature/humidity, analysed by XRPD. In kind it is physicochemical. Particulars: 1 week. As to the method:
Samples 1 and 2 were characterized by XRPD at various conditions. XRPD patterns were collected for the samples at ambient condition as the samples were provided; at variable temperature (VT-XRPD); at variable humidity (VH-XRPD); after the samples were exposed to 40° C./75% RH for 1 week and 25° C./97% RH for 1 week, respectively; and after a GVS measurement wherein the samples were exposed to 0-90% RH. Samples 1 and 2 were also characterized by ^1H NMR, TGA, DSC, KF, IC, GVS (exposed to 0-90% RH), PLM, SEM, and HPLC (Table 5).

Series [5] is described as follows: Variable humidity XRPD (VH-XRPD). In kind it is physicochemical. As for the experimental part:
Samples run under non-ambient conditions were prepared by gently packing into a cavity, cut into a silicon wafer to obtain a flat surface and mounted onto a humidity stage with an Ansyco controller and humidity sensor positioned directly next to the sample holder. The data were collected at 298.15 K with water temperature of 35.0° C., in an angular range of 3 to 31° 2θ, with a step size of 0.025° 2θ, a collection time of 2.0 sec/step, and a collection time at each % RH was 41 min 28 sec. X-Ray Powder Diffraction (XRPD) patterns were collected at variable humidity values from 0 to 95% RH, based upon the humidity behavior of each compound observed during GVS experiments (described herein). For each Variable Humidity X-Ray Powder Diffraction (VH-XRPD) experiment performed, the % RH values selected are provided alongside the relevant experimental result. Full tables of detailing the % RH value at each collection point and the associated delay time at each value are provided in Tables 10-12. To fully characterize the polymorphic behavior of Samples 1 and 2 at variable humidity, and to collect reference XRPD patterns for the ‘pure’ anhydrous Form 1 and Form 2 material, and ‘pure’ hydrated Form 3 material, Variable Humidity (VH) XRPD experiments were conducted on Samples 1 and 2. Initially, VH-XRPD experiments were conducted using Sample 1, and XRPD diffractograms were collected at selected humidity values, in line with those collected during GVS experiments (see FIGS. 6E-6F). XRPD diffractograms were collected initially at ambient RH, then collected over 24 hours at ˜95% RH and finally collected during desorption steps to 0% RH and over 10 hours at 0% RH (see FIG. 4C). […]

Turning to `CCNCCc1ccc(CN(CC)c2cc(OC)ccc2[C@@H]2CCc3cc(O)ccc3C2)cc1.Cl.Cl` [Lyophilization in water], the “XRPD post storage at 25° C./97% RH (10 days)” value in series [1] (25° C./97% RH) was “Consistent with Form 3”. For the same compound, the “XRPD post storage at 40° C./75% RH (10 days)” value in series [1] (40° C./75% RH) is “Consistent with Form 3”.

For the compound `CCNCCc1ccc(CN(CC)c2cc(OC)ccc2[C@@H]2CCc3cc(O)ccc3C2)cc1` [RAD1901], the “Selectivity of binding to the estrogen receptor (ER)” value in series [2] was “good selectivity”.

Regarding `CCNCCc1ccc(CN(CC)c2cc(OC)ccc2[C@@H]2CCc3cc(O)ccc3C2)cc1.Cl.Cl` [Sample 2], in series [3] (0-90% RH), the “Hygroscopicity (GVS)” value is “hygroscopic”. In series [3] (after exposure to 0-90% RH), the “XRPD post GVS (uptake 0-90% RH)” value was “mixture of Form 2 and Form 3; also recorded: Mixture of form 2 and 3”. The “XRPD after storage at 25° C./97% RH for 1 week” value in series [4] (25° C./97% RH) is reported as “Form 3 (FIGS. 5B and”. Moreover, the “XRPD after storage at 40° C./75% RH for 1 week” value in series [4] (40° C./75% RH) is reported as “Form 3 (FIG. 5B)”. Further, in series [5] (0% RH), the “VH-XRPD at 0% RH” value came to 5E). Form 2 at 0% RH. Further, the “VH-XRPD at high RH (>90%)” value in series [5] (>90% RH (92-93% RH recorded)) is listed as “conversion toward the hydrated state; also recorded: Conversion to Form 3”.
